In the assay the target is SIRT6 enzyme (Homo sapiens, UniProt Q8N6T7). Description: Measurement of deacetylation activity (SIRT6, AlphaLISA, H3K9(Ac) peptide). Format: biochemical. Particulars: SIRT6 25 ng/mL, H3K9(Ac) biotin peptide 2 nM, NAD 10 μM, room temperature 30 minutes, duplicate. As to the method:
The reaction was performed in duplicate using a white 384-well plate (3824, Corning or 6008350, PerkinElmer) at a final reaction liquid volume of 20.1 μL. As a control for calculating the enzyme activity, the enzyme-added (DMSO (+)) and enzyme-free (DMSO (−)) wells were set at n=8. Test substances (examples of final concentrations: 0.046, 0.14, 0.41, 1.2, 3.7, 11, 33, and 100 μM) at a concentration of 100 times or 0.1 μL of DMSO was dispensed into the plate and 5 μL of SIRT6 enzyme (prepared by Daiichi Sankyo RD Novare Co., Ltd., final concentration: 25 ng/mL) diluted with an assay buffer (10 mM Tris-HCl pH of 8.0, 0.1% BSA, 0.01% Tween 20, 1 mM DTT, 12.5% Glycerol) was added thereto. The enzymatic reaction was started by adding 5 μL of a mixed solution [Lys(Ac)9]-Histone H3 (1-21)-NH2, H3K9 (Ac), biotin-labeled, amide (AnaSpec, AS-64190, final concentration: 2 nM) and β-nicotinamide adenine dinucleotide (Sigma-Aldrich, N8285-15VL, final concentration: 10 μM), and the reaction was performed at room temperature for 30 minutes. 10 μL of a mixed solution of nicotinamide (Sigma-Aldrich, 72340-100G, final concentration: 100 mM) prepared with AlphaLISA Epigenetics Buffer (PerkinElmer, AL008C), AlphaLISA Anti-unmodified Histone H3 Lysine 9/Lysine 27 (H3K9/K27) Acceptor Beads (PerkinElmer, AL138, final concentration: 10 μg/mL), and AlphaScreen Streptavidin Donor beads (PerkinElmer, 6760002, final concentration: 5 μg/mL) was added thereto, the reaction was performed at room temperature for 60 minutes and then stopped, and acetylation was detected. The emission intensity was measured by EnVision (PerkinElmer).
The relative enzyme activity (%) of the test substance was calculated by the following equation. Relative enzyme activity (%)=[(emission intensity of test substance-added well−emission intensity of DMSO (−) well)/(emission intensity of DMSO (+) well−emission intensity of DMSO (−) well)]×100
The EC150 (the concentration of the compound showing a relative enzyme activity of 150%) of the test substance was calculated based on Sigmoidal dose-response (variable slope) of GraphPad Prism (GraphPad Software) using the value of the relative enzyme activity (%) at each concentration, and the results are listed in Tables 1-1 to 1-5.
On the technique in general: Bead proximity is the source of the signal in Alpha formats.

The source of these data is patent publication US11981686B2, “Urea compound having substituent” (DAIICHI SANKYO COMPANY, LIMITED, priority 2019, dated 2024).

SIRT6 enzyme, sequence (Q8N6T7 whole entry, species assumed): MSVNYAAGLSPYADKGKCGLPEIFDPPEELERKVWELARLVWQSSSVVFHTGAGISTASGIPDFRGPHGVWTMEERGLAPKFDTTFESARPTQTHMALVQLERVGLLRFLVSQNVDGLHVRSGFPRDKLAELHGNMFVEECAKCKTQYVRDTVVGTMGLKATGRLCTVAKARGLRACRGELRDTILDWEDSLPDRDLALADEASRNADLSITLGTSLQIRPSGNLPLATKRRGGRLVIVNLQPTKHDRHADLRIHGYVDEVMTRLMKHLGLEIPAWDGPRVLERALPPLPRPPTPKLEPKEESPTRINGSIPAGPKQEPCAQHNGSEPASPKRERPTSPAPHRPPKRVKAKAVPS

As to `CC(C)CNC(=O)Nc1nc2c(s1)[C@@H]1COC[C@H](C2)N1c1nc2cc(S(C)(=O)=O)ccc2o1` [Example 43, N-{(4S,8S)-10-[5-(methanesulfonyl)-1,3-benzoxazol-2-yl]-4,7,8,9-tetrahydro-5H-4,8-epiminooxocino[5,4-d][1,3]thiazol-2-yl}-N′-(2-methylpropyl)urea], the “EC150 (the concentration of the compound showing a relative enzyme activity of 150%)” value turned out to be 1.5 μm. With `COc1cc2nc(N3[C@@H]4COC[C@H]3c3sc(NC(=O)NCC(C)(C)O)nc3C4)oc2cc1C` [Example 44, N-(2-hydroxy-2-methylpropyl)-N′-[(4S,8S)-10-(5-methoxy-6-methyl-1,3-benzoxazol-2-yl)-4,7,8,9-tetrahydro-5H-4,8-epiminooxocino[5,4-d][1,3]thiazol-2-yl]urea] the figure was 2.3 μm. The figure for `COc1cc2nc(N3[C@@H]4COC[C@H]3c3sc(NC(=O)N[C@@H]5CCOC5)nc3C4)oc2cc1C` [Example 45, N-[(4S,8S)-10-(5-methoxy-6-methyl-1,3-benzoxazol-2-yl)-4,7,8,9-tetrahydro-5H-4,8-epiminooxocino[5,4-d][1,3]thiazol-2-yl]-N′-[(3R)-oxolan-3-yl]urea] is 0.79 μm. With `COc1ccc2oc(N3[C@@H]4COC[C@H]3c3sc(NC(=O)NCC(C)(C)O)nc3C4)nc2c1` [Example 46, N-(2-hydroxy-2-methylpropyl)-N′-[(4S,8S)-10-(5-methoxy-1,3-benzoxazol-2-yl)-4,7,8,9-tetrahydro-5H-4,8-epiminooxocino[5,4-d][1,3]thiazol-2-yl]urea] the figure was 2.1 μm; with `COc1ccc2oc(N3[C@@H]4COC[C@H]3c3sc(NC(=O)N[C@@H]5CCOC5)nc3C4)nc2c1` [Example 47, N-[(4S,8S)-10-(5-methoxy-1,3-benzoxazol-2-yl)-4,7,8,9-tetrahydro-5H-4,8-epiminooxocino[5,4-d][1,3]thiazol-2-yl]-N′-[(3R)-oxolan-3-yl]urea], 0.83 μm; with `CNC(=O)Nc1nc2c(s1)[C@@H]1COC[C@H](C2)N1c1nc2cc(OC)ccc2o1` [Example 48, N-[(4S,8S)-10-(5-methoxy-1,3-benzoxazol-2-yl)-4,7,8,9-tetrahydro-5H-4,8-epiminooxocino[5,4-d][1,3]thiazol-2-yl]-N′-methylurea], 1.2 μm.

As for `CNC(=O)Nc1nc2c(s1)[C@@H]1COC[C@H](C2)N1c1nc2cc(C)ccc2o1` [Example 49, N-methyl-N′-[(4S,8S)-10-(5-methyl-1,3-benzoxazol-2-yl)-4,7,8,9-tetrahydro-5H-4,8-epiminooxocino[5,4-d][1,3]thiazol-2-yl]urea], the “EC150 (the concentration of the compound showing a relative enzyme activity of 150%)” value is 1.5 μm. Regarding `CC(C)NC(=O)Nc1nc2c(s1)[C@@H]1COC[C@H](C2)N1c1nc2cc(S(C)(=O)=O)ccc2o1` [Example 50, N-{(4S,8S)-10-[5-(methanesulfonyl)-1,3-benzoxazol-2-yl]-4,7,8,9-tetrahydro-5H-4,8-epiminooxocino[5,4-d][1,3]thiazol-2-yl}-N′-propan-2-ylurea], the “EC150 (the concentration of the compound showing a relative enzyme activity of 150%)” value worked out at 1.5 μm. The figure for `Cc1cc2nc(N3[C@@H]4COC[C@H]3c3sc(NC(=O)NCC(C)(C)O)nc3C4)oc2cc1C#N` [Example 51, N-[(4S,8S)-10-(6-cyano-5-methyl-1,3-benzoxazol-2-yl)-4,7,8,9-tetrahydro-5H-4,8-epiminooxocino[5,4-d][1,3]thiazol-2-yl]-N′-(2-hydroxy-2-methylpropyl)urea] is 0.47 μm. The figure for `CCOc1ccc2oc(N3[C@@H]4COC[C@H]3c3sc(NC(=O)N[C@H](C)CO)nc3C4)nc2c1` [Example 52, N-[(4S,8S)-10-(5-ethoxy-1,3-benzoxazol-2-yl)-4,7,8,9-tetrahydro-5H-4,8-epiminooxocino[5,4-d][1,3]thiazol-2-yl]-N′-[(2R)-1-hydroxypropan-2-yl]urea] is 1.9 μm. Turning to `CC(C)(O)CNC(=O)Nc1nc2c(s1)[C@@H]1COC[C@H](C2)N1c1nc2cc(C(F)F)ccc2o1` [Example 53, N-{(4S,8S)-10-[5-(difluoromethyl)-1,3-benzoxazol-2-yl]-4,7,8,9-tetrahydro-5H-4,8-epiminooxocino[5,4-d][1,3]thiazol-2-yl}-N′-(2-hydroxy-2-methylpropyl)urea], the “EC150 (the concentration of the compound showing a relative enzyme activity of 150%)” value came out at 0.29 μm. The figure for `O=C(Nc1nc2c(s1)[C@@H]1COC[C@H](C2)N1c1nc2cc(OC(F)(F)F)ccc2o1)N[C@H]1C[C@H](O)C1` [Example 54, N-[(1r,3S)-3-hydroxycyclobutyl]-N′-[(4S,8S)-10-(5-trifluoromethoxy-1,3-benzoxazol-2-yl)-4,7,8,9-tetrahydro-5H-4,8-epiminooxocino[5,4-d][1,3]thiazol-2-yl]urea] is 0.48 μm. In the case of `CC(C)(O)CNC(=O)Nc1nc2c(s1)[C@@H]1COC[C@H](C2)N1c1nc2cc(C#N)c(F)cc2o1` [Example 55, N-[(4S,8S)-10-(5-cyano-6-fluoro-1,3-benzoxazol-2-yl)-4,7,8,9-tetrahydro-5H-4,8-epiminooxocino[5,4-d][1,3]thiazol-2-yl]-N′-(2-hydroxy-2-methylpropyl)urea], the “EC150 (the concentration of the compound showing a relative enzyme activity of 150%)” value was determined as 2.3 μm. The figure for `C[C@H](CO)NC(=O)Nc1nc2c(s1)[C@@H]1COC[C@H](C2)N1c1nc2cc(C(F)F)ccc2o1` [Example 56, N-{(4S,8S)-10-[5-(difluoromethyl)-1,3-benzoxazol-2-yl]-4,7,8,9-tetrahydro-5H-4,8-epiminooxocino[5,4-d][1,3]thiazol-2-yl}-N′-[(2R)-1-hydroxypropan-2-yl]urea] is 0.19 μm; for `CC(C)(O)CNC(=O)Nc1nc2c(s1)[C@@H]1COC[C@H](C2)N1c1nc2cc(OCF)ccc2o1` [Example 57, N-{(4S,8S)-10-[5-(fluoromethoxy)-1,3-benzoxazol-2-yl]-4,7,8,9-tetrahydro-5H-4,8-epiminooxocino[5,4-d][1,3]thiazol-2-yl}-N′-(2-hydroxy-2-methylpropyl)urea] it is 0.93 μm.

As to `COc1ccc2oc(N3[C@@H]4COC[C@H]3c3sc(NC(=O)NC(C)(C)CO)nc3C4)nc2c1` [Example 58, N-(1-hydroxy-2-methylpropan-2-yl)-N′-[(4S,8S)-10-(5-methoxy-1,3-benzoxazol-2-yl)-4,7,8,9-tetrahydro-5H-4,8-epiminooxocino[5,4-d][1,3]thiazol-2-yl]urea], the “EC150 (the concentration of the compound showing a relative enzyme activity of 150%)” value was determined as 2.4 μm.

For the molecule `C[C@H](CO)NC(=O)Nc1nc2c(s1)[C@@H]1COC[C@H](C2)N1c1nc2cc(Cl)ccc2o1` [Example 59, N-[(4S,8S)-10-(5-chloro-1,3-benzoxazol-2-yl)-4,7,8,9-tetrahydro-5H-4,8-epiminooxocino[5,4-d][1,3]thiazol-2-yl]-N′-[(2R)-1-hydroxypropan-2-yl]urea], the “EC150 (the concentration of the compound showing a relative enzyme activity of 150%)” value came to 0.44 μm. The figure for `[2H]C([2H])([2H])Oc1ccc2oc(N3[C@@H]4COC[C@H]3c3sc(NC(=O)NCC(C)(C)O)nc3C4)nc2c1` [Example 60, N-(2-hydroxy-2-methylpropyl)-N′-[(4S,8S)-10-{5-[(^2H3)methyloxy]-1,3-benzoxazol-2-yl}-4,7,8,9-tetrahydro-5H-4,8-epiminooxocino[5,4-d][1,3]thiazol-2-yl]urea] is 1.7 μm; for `O=C(Nc1nc2c(s1)[C@@H]1COC[C@H](C2)N1c1cc(-c2ccc(F)cc2)on1)N[C@H]1CC[C@@H](O)CC1` [Example 61, N-{(4S,8S)-10-[5-(4-fluorophenyl)-1,2-oxazol-3-yl]-4,7,8,9-tetrahydro-5H-4,8-epiminooxocino[5,4-d][1,3]thiazol-2-yl}-N′-[(1s,4s)-4-hydroxycyclohexyl]urea] it is 1.9 μm. With `COc1cccc(-c2cc(N3[C@@H]4COC[C@H]3c3sc(NC(=O)NC5CCOCC5)nc3C4)no2)n1` [Example 62, N-{(4S,8S)-10-[5-(6-methoxypyridin-2-yl)-1,2-oxazol-3-yl]-4,7,8,9-tetrahydro-5H-4,8-epiminooxocino[5,4-d][1,3]thiazol-2-yl}-N′-oxan-4-ylurea] the figure was 2.6 μm.
